# Assay results published in US4355040A, “Hypotensive imidazole-5-acetic acid derivatives” (Takeda Chemical Industries, Ltd., priority 1979, dated 1982).
# Like-named read-outs stand apart in the source and are kept apart here.
# Columns and labels:
# [1] = tested on: angiotensin II-induced elevation of blood pressure; assay: Inhibitory activity against angiotensin II-induced elevation of blood pressure in rats; format: in vivo, Male SD rats; conditions: for inhibition in vivo at 0.3 mg/kg / inhibition in vivo at 0.5 mg/kg / inhibition in vivo at 1 mg/kg / inhibition in vivo at 0.1 mg/kg / inhibition in vivo at 0.03 mg/kg / inhibition in vivo at 3 mg/kg: Rattus norvegicus, iv; for inhibition in vivo at 0.5 mg/kg: 0.5 mg/kg intravenously; for inhibition in vivo at 1 mg/kg: 1.0 mg/kg intravenously; for inhibition in vivo at 0.03 mg/kg: 0.03 mg/kg intravenously; for inhibition in vivo at 3 mg/kg: 3.0 mg/kg intravenously
# [2] = tested on: angiotensin II (aortic blood vessel of rabbits); assay: Antagonistic effect on angiotensin II (A II)-induced tension, aortic blood vessel of rabbits; format: cell-based; conditions: Oryctolagus cuniculus, 0.25 h, A II 4×10^-9 M, 15 minutes
# Description: Antagonistic effect of the compound (I) of the present invention on angiotensin II (hereinafter referred to briefly as "A II") (with aortic blood vessel of rabbits)
# The blood-vessel preparation and reaction were done in accordance with the method as described in "European Journal of Pharmacology", 18, 316 (1972). […] [formula] where; T1 =Change in isometric tension of the blood vessel brought about by A II without a test drug substance (g)
# [3] = 10 min, 0.3 mg/kg intravenously, A II 20 ng/kg/min, 10 min, read-out: Inhibition (%), after 10 min.
# [4] = 10 min, A II 20 ng/kg/min, 10 min, read-out: Inhibition (%), after 10 min.
# [5] = 0.5 h, 0.3 mg/kg intravenously, A II 20 ng/kg/min, 30 min, read-out: Inhibition (%), after 30 min.
# [6] = 0.5 h, A II 20 ng/kg/min, 30 min, read-out: Inhibition (%), after 30 min.
# [7] = 1.5 h, 0.3 mg/kg intravenously, A II 20 ng/kg/min, 90 min, read-out: Inhibition (%), after 90 min.
# [8] = 1.5 h, A II 20 ng/kg/min, 90 min, read-out: Inhibition (%), after 90 min.
# [9] = 10 min, read-out: Inhibition (%), after 10 min.
# [10] = 0.5 h, read-out: Inhibition (%), after 30 min.
# [11] = 1.5 h, read-out: Inhibition (%), after 90 min.
# [12] = 10 min, 0.1 mg/kg intravenously, A II 20 ng/kg/min, 10 min, read-out: Inhibition (%), after 10 min.
# [13] = 0.5 h, 0.1 mg/kg intravenously, A II 20 ng/kg/min, 30 min, read-out: Inhibition (%), after 30 min.
# [14] = 1.5 h, 0.1 mg/kg intravenously, A II 20 ng/kg/min, 90 min, read-out: Inhibition (%), after 90 min.
compound,measurement,setting,value
O=C(O)Cc1c(Cl)nc(-c2ccc(O)cc2)n1Cc1ccccc1 [drawing 132],inhibition in vivo at 0.3 mg/kg,[1]; [3],10.7 ± 1.8%
same,inhibition in vivo at 0.5 mg/kg,[1]; [4],14.8 ± 1.8%
same,inhibition in vivo at 0.3 mg/kg,[1]; [5],24.3 ± 2.3%
same,inhibition in vivo at 0.5 mg/kg,[1]; [6],36 ± 3%
same,inhibition in vivo at 0.3 mg/kg,[1]; [7],11.7 ± 6%
same,inhibition in vivo at 0.5 mg/kg,[1]; [8],35 ± 3.9%
Nc1ccc(-c2nc(Cl)c(CC(=O)O)n2Cc2ccccc2)cc1 [drawing 133],inhibition in vivo at 0.5 mg/kg,[1]; [4],17.7 ± 1.2%
same,inhibition in vivo at 0.5 mg/kg,[1]; [6],45.3 ± 2.4%
same,inhibition in vivo at 0.5 mg/kg,[1]; [8],37 ± 8.6%
O=C(O)Cc1c(Cl)nc(-c2ccccc2)n1Cc1ccccc1Cl [drawing 134],inhibition in vivo at 1 mg/kg,[1]; [4],11.8 ± 1.8%
same,inhibition in vivo at 1 mg/kg,[1]; [6],36.5 ± 4.5%
same,inhibition in vivo at 1 mg/kg,[1]; [8],32.3 ± 7%
O=C(O)Cc1c(Cl)nc(-c2cc([N+](=O)[O-])c(Cl)c([N+](=O)[O-])c2)n1Cc1ccccc1 [drawing 135],inhibition in vivo at 0.1 mg/kg,[1]; [9],22.5 ± 3.2%
same,inhibition in vivo at 0.3 mg/kg,[1]; [9],18%
same,inhibition in vivo at 0.1 mg/kg,[1]; [10],55 ± 7.5%
same,inhibition in vivo at 0.3 mg/kg,[1]; [10],72%
same,inhibition in vivo at 0.1 mg/kg,[1]; [11],55 ± 7.5%
same,inhibition in vivo at 0.3 mg/kg,[1]; [11],72%
CCCCOc1ccc(Cn2c(-c3ccccc3)nc(Cl)c2CC(=O)O)cc1 [drawing 136],inhibition in vivo at 0.03 mg/kg,[1]; [4],17%
same,inhibition in vivo at 3 mg/kg,[1]; [4],20%
same,inhibition in vivo at 0.03 mg/kg,[1]; [6],46.5%
same,inhibition in vivo at 3 mg/kg,[1]; [6],40%
same,inhibition in vivo at 0.03 mg/kg,[1]; [8],40%
same,inhibition in vivo at 3 mg/kg,[1]; [8],0%
COc1ccc(Cn2c(-c3ccccc3)nc(Cl)c2CC(=O)O)cc1C [drawing 137],inhibition in vivo at 0.5 mg/kg,[1]; [4],33 ± 15%
same,inhibition in vivo at 0.5 mg/kg,[1]; [6],60 ± 18%
same,inhibition in vivo at 0.5 mg/kg,[1]; [8],62 ± 7%
CCCCc1nc(Cl)c(CC(=O)O)n1Cc1ccccc1Cl [n-C4 H9 / 2-Cl / H / H],inhibition in vivo at 0.1 mg/kg,[1]; [12],38%
same,inhibition in vivo at 0.1 mg/kg,[1]; [13],100%
same,inhibition in vivo at 0.1 mg/kg,[1]; [14],86%
same,inhibition at 0.1 µM,[2]; 10^-7 M drug substance,75%
"CCCCc1nc(Cl)c(CC(=O)O)n1Cc1ccccc1 [n-C4 H9 / H / H / H, 1-Benzyl-2-n-butyl-4-chloroimidazole-5-acetic acid]",inhibition in vivo at 0.1 mg/kg,[1]; [12],19.6 ± 1.5%
same,inhibition in vivo at 0.3 mg/kg,[1]; [3],25%
same,inhibition in vivo at 0.1 mg/kg,[1]; [13],64.3 ± 15.3%
same,inhibition in vivo at 0.3 mg/kg,[1]; [5],94%
same,inhibition in vivo at 0.1 mg/kg,[1]; [14],60 ± 21.5%
same,inhibition in vivo at 0.3 mg/kg,[1]; [7],94%
same,inhibition at 1 µM,"[2]; 10^-6 M drug substance, read-out: Inhibition",55%
"A II: angiotensin II (hereinafter referred to briefly as ""A II"") (DRVYIHPF; Angiotensin-2; UniProt P01019 25-32, looked up) [reference compound]","elevation of blood pressure after the infusion of A II, as compared with the one before the infusion","[1]; A II 20 ng/kg/min continuous intravenous infusion, 75 cases, no test drug",45.5±2.1 mmHg
